The record followed here is PubChem BioAssay (NCI).

Some test systems named below: ACHN renal; HCC-2998 colon; NCI-H226 lung; NCI-H23 lung; RXF 393 renal; SK-MEL-5 melanoma; SN12C renal; UACC-62 melanoma; UO-31 renal; NCI-H522 lung.
Common to all, as to assay: inhibition of tumour cell growth, NCI panel, 48 h

Molecules are shown by their SMILES.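 48-hour exposure; five concentrations; linearly interpolated endpoints. Here, GI50 denotes the concentration required for 50% inhibition of growth. TGI: total growth inhibition.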 Bounds are passed on as bounds.

`OC1=CN=C(c2ccccc2)Oc2ccccc21`: the TGI is over 100 µM in the experiment on ACHN renal; over 100 µM with HCC-2998 colon; 97.5 µM with NCI-H226 lung; over 100 µM with NCI-H23 lung; over 100 µM with RXF 393 renal; over 100 µM in the experiment with SK-MEL-5 melanoma. In addition, the TGI in the experiment on SN12C renal, in the experiment on UACC-62 melanoma and with UO-31 renal was over 100 µM in each case.
For `O=C1OC(=O)c2c1nc1ccccc1c2-c1ccccc1`, the TGI in the experiment with ACHN renal, in the experiment on HCC-2998 colon, with NCI-H226 lung, in the experiment on NCI-H522 lung, in the experiment on RXF 393 renal and with SK-MEL-5 melanoma was over 100 µM throughout. Besides, the TGI in the experiment with SN12C renal, with UACC-62 melanoma and with UO-31 renal was over 100 µM each time.
Take `Nc1nc(Cl)c2ncn(Cc3ccc(C45CC6CC(CC(C6)C4)C5)c(OCc4cc(F)c(F)cc4F)c3)c2n1`: the GI50 was 3.4 µM with ACHN renal; 2.48 µM in the experiment on HCC-2998 colon; 5.69 µM with NCI-H226 lung; 2.8 µM in the experiment with NCI-H522 lung; 0.677 µM in the experiment with RXF 393 renal; 0.392 µM in the experiment with SK-MEL-5 melanoma. Moreover, the GI50 is 3.05 µM with SN12C renal, 1.64 µM in the experiment with UACC-62 melanoma and 4.54 µM in the experiment with UO-31 renal. Besides, the TGI in the experiment on ACHN renal was determined as 13.7 µM; in the experiment on HCC-2998 colon it was 5.58 µM; in the experiment on NCI-H226 lung, 21.9 µM; in the experiment with NCI-H522 lung, 12.3 µM; in the experiment on RXF 393 renal, 2.66 µM; in the experiment with SK-MEL-5 melanoma, 2.24 µM. The TGI with SN12C renal is 11.3 µM; in the experiment on UACC-62 melanoma it was 12.6 µM; in the experiment with UO-31 renal, 19.4 µM.
Take `Cc1nc2sccn2c1C(=O)NNC(N)=S`: the TGI in the experiment on ACHN renal, in the experiment on HCC-2998 colon, with NCI-H226 lung, in the experiment with NCI-H23 lung, with NCI-H522 lung and with RXF 393 renal was over 100 µM throughout. Besides, the TGI with SK-MEL-5 melanoma, in the experiment with SN12C renal and in the experiment on UACC-62 melanoma was over 100 µM each time.
For the molecule `O=c1[nH]c2ccccc2cc1-c1nnc(Cc2ccccc2)o1`, the GI50 with HCC-2998 colon was 12.7 µM; in the experiment on NCI-H226 lung, 11.5 µM; in the experiment with NCI-H23 lung, 11.3 µM; with NCI-H522 lung, 2.27 µM; in the experiment with RXF 393 renal, 2.93 µM; with SK-MEL-5 melanoma it was 3.43 µM. For the same molecule, the GI50 with SN12C renal is 3.46 µM; in the experiment with UACC-62 melanoma, 3.43 µM; in the experiment on UO-31 renal, 1.72 µM. The TGI is 27.5 µM in the experiment with HCC-2998 colon; 94.4 µM with NCI-H226 lung; 39.5 µM in the experiment with NCI-H23 lung; 5.9 µM in the experiment on NCI-H522 lung; 10.9 µM with RXF 393 renal; 16.4 µM in the experiment on SK-MEL-5 melanoma. The TGI was 28.2 µM in the experiment on SN12C renal, 15.6 µM in the experiment with UACC-62 melanoma and 3.72 µM with UO-31 renal.
In the case of `O=c1[nH]c(=S)[nH]c(O)c1/C=C1\C=Nc2ccccc21`, the GI50 in the experiment with ACHN renal was 11.4 µM; in the experiment on HCC-2998 colon, 11.4 µM; in the experiment on NCI-H226 lung, 12.5 µM; in the experiment with NCI-H23 lung it was 12.4 µM; in the experiment on NCI-H522 lung, 16.9 µM; in the experiment with RXF 393 renal, 3.71 µM. The GI50 is 11.7 µM with SK-MEL-5 melanoma, 7.95 µM in the experiment on SN12C renal and 8.26 µM with UACC-62 melanoma. The TGI with ACHN renal was determined as 24.3 µM; in the experiment with HCC-2998 colon, 24.8 µM; in the experiment with NCI-H226 lung, 46.1 µM; in the experiment with NCI-H23 lung it was 44.2 µM; with NCI-H522 lung, 54.4 µM; with RXF 393 renal, 14.6 µM. Further, the figures for the TGI with SK-MEL-5 melanoma, in the experiment with SN12C renal and in the experiment with UACC-62 melanoma were 27.2 µM, 59.4 µM and 46.9 µM, respectively.
Take `O=C([O-])c1ccc([I+]c2ccccc2)cc1`: the TGI with HCC-2998 colon, in the experiment on NCI-H226 lung, in the experiment with NCI-H23 lung, in the experiment on NCI-H522 lung, in the experiment on RXF 393 renal and in the experiment on SK-MEL-5 melanoma was over 100 µM in each case. The TGI in the experiment on SN12C renal, with UACC-62 melanoma and in the experiment on UO-31 renal was over 100 µM in each case.
Take `O=C1C=CC2(CCC23C=CC(=O)O3)O1` (stereo not given): the TGI in the experiment on ACHN renal, in the experiment on HCC-2998 colon, in the experiment on NCI-H226 lung, in the experiment on NCI-H23 lung, in the experiment on NCI-H522 lung and in the experiment with RXF 393 renal was over 100 µM throughout. For the same molecule, the TGI in the experiment on SN12C renal, in the experiment on UACC-62 melanoma and with UO-31 renal was over 100 µM in each case.
`CCOC(=O)C[C@@]12CCCN[C@]1(C)CCc1ccccc12`: the TGI with ACHN renal, with HCC-2998 colon, in the experiment with NCI-H23 lung, in the experiment with NCI-H522 lung, with RXF 393 renal and with SK-MEL-5 melanoma was over 100 µM in each case. In addition, the TGI with SN12C renal, in the experiment on UACC-62 melanoma and in the experiment on UO-31 renal was over 100 µM throughout.
On to `CCOC(=O)C1C(c2ccc(Br)cc2)N(Cc2ccccc2)C(c2ccc(Br)cc2)C(C(=O)OC)S1(=O)=O` (stereo not given), for which the TGI with ACHN renal, in the experiment with HCC-2998 colon, in the experiment with NCI-H226 lung, in the experiment with NCI-H23 lung, in the experiment with NCI-H522 lung and in the experiment with RXF 393 renal was over 100 µM each time. For the same molecule, the TGI with SN12C renal, with UACC-62 melanoma and in the experiment with UO-31 renal was over 100 µM each time.
In the case of `Cc1cc(OC2OC(CO)C(O)C(O)C2O)ccc1O` (stereo not given), the TGI in the experiment with ACHN renal, in the experiment on HCC-2998 colon, in the experiment on NCI-H23 lung, with NCI-H522 lung, in the experiment on RXF 393 renal and in the experiment with SK-MEL-5 melanoma was over 100 µM each time. Also, the TGI with SN12C renal, with UACC-62 melanoma and in the experiment on UO-31 renal was over 100 µM in each case.
As for `CCc1c(OC(C)=O)c2c(NC3OC(COC(C)=O)C(OC(C)=O)C(OC(C)=O)C3OC(C)=O)nc(SC)nc2oc1=O` (stereo not given), the TGI with ACHN renal, in the experiment on HCC-2998 colon, in the experiment on NCI-H226 lung, with NCI-H23 lung, in the experiment with RXF 393 renal and in the experiment with SK-MEL-5 melanoma was over 100 µM each time. Further, the TGI in the experiment on SN12C renal, in the experiment on UACC-62 melanoma and in the experiment with UO-31 renal was over 100 µM each time.
